Assays:
corn = test: Test B pre/postemergence corn; type: in vivo, Zea mays
Method in brief: (§1)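 Response is a visual 0-to-10 score relative to untreated plants, where 0 means no effect and 10 means complete control, taken twelve to sixteen days after application. Treatments went onto soil at planting and onto foliage of 1- to 4-leaf plants, using a surfactant-containing non-phytotoxic solvent.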

sugar beet = test: Test B pre/postemergence sugar beet; type: in vivo, Beta vulgaris
Method in brief: as §1

surinam grass = test: Test B pre/postemergence surinam grass; type: in vivo, Brachiaria decumbens; conditions: Postemergence
Method in brief: as §1

crabgrass = test: Test B pre/postemergence crabgrass; type: in vivo, Digitaria sanguinalis
Method in brief: as §1

giant foxtail = test: Test B pre/postemergence giant foxtail; type: in vivo, Setaria faberii
Method in brief: as §1

wheat = test: Test B pre/postemergence wheat; type: in vivo, Triticum aestivum
Method in brief: as §1

pigweed = test: Test B pre/postemergence pigweed; type: in vivo, Amaranthus retroflexus
Method in brief: as §1

soybean = test: Test B pre/postemergence soybean; type: in vivo, Glycine max
Method in brief: as §1

blackgrass = test: Test B pre/postemergence blackgrass; type: in vivo, Alopecurus myosuroides
Method in brief: as §1

purple nutsedge = test: Test B pre/postemergence purple nutsedge; type: in vivo, Cyperus rotundus
Method in brief: as §1

rape = test: Test B pre/postemergence rape; type: in vivo, Brassica napus
Method in brief: as §1

velvetleaf = test: Test B pre/postemergence velvetleaf; type: in vivo, Abutilon theophrasti
Method in brief: as §1

cocklebur = test: Test B pre/postemergence cocklebur; type: in vivo, Xanthium strumarium
Method in brief: as §1

bedstraw = test: Test B pre/postemergence bedstraw; type: in vivo, Galium aparine
Method in brief: as §1

morningglory = test: Test B pre/postemergence morningglory; type: in vivo, Ipomoea hederacea
Method in brief: as §1

wild oat = test: Test B pre/postemergence wild oat; type: in vivo, Avena fatua
Method in brief: as §1

[1] = Postemergence, Rate 125 g/ha, scale of 0 to 10 where 0 is no effect and 10 is complete control
[2] = Postemergence, Rate 500 g/ha, scale 0 (no effect) to 10 (complete control)
[3] = Postemergence, Rate 1000 g/ha, scale 0 to 10 (0 no effect, 10 complete control)
[4] = Preemergence, Rate 250 g/ha, scale 0 (no effect) to 10 (complete control)
[5] = Rate 125 g/ha, Preemergence, scale 0 to 10 (0 no effect, 10 complete control)
[6] = Rate 250 g/ha, Postemergence, scale 0 to 10, 0 is no effect, 10 is complete control
[7] = Rate 500 g/ha, Preemergence, scale 0 to 10 (0 no effect, 10 complete control)
[8] = Rate 1000 g/ha, Preemergence, scale 0 to 10 (0 no effect, 10 complete control)

COC(=O)N(C)CCn1c(=O)on(C(=O)N(c2ccccc2)C(C)C)c1=O [Compound 775]
9: B. signalgrass plant response rating (surinam grass; Rate 1000 g/ha, scale 0 to 10 (0 no effect, 10 complete control)) | Crabgrass plant response rating (crabgrass; [2]) | Crabgrass plant response rating (crabgrass; [3]) | Crabgrass plant response rating (crabgrass; [4]) | Crabgrass plant response rating (crabgrass; [5]) | Giant foxtail plant response rating (giant foxtail; [2]) | Giant foxtail plant response rating (giant foxtail; [3]) | Giant foxtail plant response rating (giant foxtail; [5]) | Plant response rating, Wheat (wheat; [8]) | Redroot pigweed plant response rating (pigweed; [7]) | Blackgrass plant response rating (blackgrass; [4]) | Plant response rating, Nutsedge (purple nutsedge; [8]) | Plant response rating, Wild oats (wild oat; [8])
3: Corn plant response rating (corn; [7]) | Sugarbeets plant response rating (sugar beet; [7]) | Plant response rating, Sugarbeets (sugar beet; [8]) | B. signalgrass plant response rating (surinam grass; Rate 250 g/ha, scale 0 to 10, 0 is no effect, 10 is complete control) | B. signalgrass plant response rating (surinam grass; Rate 500 g/ha, scale 0 to 10, 0 is no effect, 10 is complete control) | Crabgrass plant response rating (crabgrass; [1]) | Redroot pigweed plant response rating (pigweed; [1]) | Redroot pigweed plant response rating (pigweed; [2]) | Redroot pigweed plant response rating (pigweed; [6])
1: Soybean plant response rating (soybean; [7])
0: Corn plant response rating (corn; [1]) | Corn plant response rating (corn; [2]) | Corn plant response rating (corn; [3]) | Corn plant response rating (corn; [4]) | Corn plant response rating (corn; [5]) | Corn plant response rating (corn; [6]) | Sugarbeets plant response rating (sugar beet; [2]) | Sugarbeets plant response rating (sugar beet; [5]) | Sugarbeets plant response rating (sugar beet; [6]) | Wheat plant response rating (wheat; [2]) | Wheat plant response rating (wheat; [5]) | Wheat plant response rating (wheat; [6]) | Redroot pigweed plant response rating (pigweed; [5]) | Soybean plant response rating (soybean; [5]) | Blackgrass plant response rating (blackgrass; [1]) | Nutsedge plant response rating (purple nutsedge; [1]) | Nutsedge plant response rating (purple nutsedge; [3]) | Nutsedge plant response rating (purple nutsedge; [5]) | Nutsedge plant response rating (purple nutsedge; [6]) | Nutsedge plant response rating (purple nutsedge; [7]) | Rape plant response rating (rape; [1]) | Rape plant response rating (rape; [2]) | Rape plant response rating (rape; [3]) | Rape plant response rating (rape; [5]) | Rape plant response rating (rape; [6]) | Rape plant response rating (rape; [7]) | Velvetleaf plant response rating (velvetleaf; [5]) | Velvetleaf plant response rating (velvetleaf; [7]) | Cocklebur plant response rating (cocklebur; [1]) | Cocklebur plant response rating (cocklebur; [2]) | Cocklebur plant response rating (cocklebur; [3]) | Cocklebur plant response rating (cocklebur; [4]) | Cocklebur plant response rating (cocklebur; [5]) | Cocklebur plant response rating (cocklebur; [6]) | Cocklebur plant response rating (cocklebur; [7]) | Plant response rating, Cocklebur (cocklebur; [8]) | Bedstraw plant response rating (bedstraw; [1]) | Bedstraw plant response rating (bedstraw; [4]) | Bedstraw plant response rating (bedstraw; [5]) | Morningglory plant response rating (morningglory; [5]) | Wild oats plant response rating (wild oat; [2]) | Wild oats plant response rating (wild oat; [6])
7: Crabgrass plant response rating (crabgrass; [6]) | Giant foxtail plant response rating (giant foxtail; [1]) | Giant foxtail plant response rating (giant foxtail; [6]) | Blackgrass plant response rating (blackgrass; [2]) | Plant response rating, Rape (rape; [8]) | Bedstraw plant response rating (bedstraw; [2]) | Bedstraw plant response rating (bedstraw; [3])
2: B. signalgrass plant response rating (surinam grass; Rate 125 g/ha, scale of 0 to 10 where 0 is no effect and 10 is complete control) | Plant response rating, Soybean (soybean; [8]) | Velvetleaf plant response rating (velvetleaf; [2]) | Velvetleaf plant response rating (velvetleaf; [6]) | Bedstraw plant response rating (bedstraw; [6]) | Bedstraw plant response rating (bedstraw; [7]) | Plant response rating, Bedstraw (bedstraw; [8]) | Morningglory plant response rating (morningglory; [7]) | Wild oats plant response rating (wild oat; [5])
4: Plant response rating, Corn (corn; [8]) | Blackgrass plant response rating (blackgrass; [3]) | Blackgrass plant response rating (blackgrass; [6]) | Plant response rating, Velvetleaf (velvetleaf; [8])
6: Redroot pigweed plant response rating (pigweed; [3]) | Soybean plant response rating (soybean; [2]) | Soybean plant response rating (soybean; [6]) | Morningglory plant response rating (morningglory; [2]) | Morningglory plant response rating (morningglory; [6])
5: Blackgrass plant response rating (blackgrass; [5]) | Morningglory plant response rating (morningglory; [1]) | Plant response rating, Morningglory (morningglory; [8])
8: Wheat plant response rating (wheat; [7]) | Morningglory plant response rating (morningglory; [3]) | Wild oats plant response rating (wild oat; [7])
10: Crabgrass plant response rating (crabgrass; [7]) | Plant response rating, Crabgrass (crabgrass; [8]) | Giant foxtail plant response rating (giant foxtail; [4]) | Giant foxtail plant response rating (giant foxtail; [7]) | Plant response rating, Giant foxtail (giant foxtail; [8]) | Plant response rating, Redroot pigweed (pigweed; [8]) | Blackgrass plant response rating (blackgrass; [7]) | Plant response rating, Blackgrass (blackgrass; [8])
